Assay results: US8710059B2, “N-phenyl-(homo)piperazinyl-benzenesulfonyl or benzenesulfonamide compounds suitable for treating disorders that respond to the modulation of the serotonin 5-HT6 receptor” (Abbott Laboratories, priority 2010, dated 2014)

Target: T1, dopamine D2 receptor (Homo sapiens, UniProt P14416)
T1 construct: expressed in transfected cells
Assay: Dopamine D2 receptor binding assay (displacement of [125I]-iodospiperone)
Settings: saturation binding experiments, HEK293 D2 membranes
Method: 1. […] The pellets were stored at −80° C. until use. […] (Beckman Ultrazentrifuge XL 80). […] 2. Receptor Binding Experiments
b) Dopamine D2 Receptor Binding Assay
Non-specific binding was defined with 1 μM haloperidol.

T1 sequence (P14416 whole entry): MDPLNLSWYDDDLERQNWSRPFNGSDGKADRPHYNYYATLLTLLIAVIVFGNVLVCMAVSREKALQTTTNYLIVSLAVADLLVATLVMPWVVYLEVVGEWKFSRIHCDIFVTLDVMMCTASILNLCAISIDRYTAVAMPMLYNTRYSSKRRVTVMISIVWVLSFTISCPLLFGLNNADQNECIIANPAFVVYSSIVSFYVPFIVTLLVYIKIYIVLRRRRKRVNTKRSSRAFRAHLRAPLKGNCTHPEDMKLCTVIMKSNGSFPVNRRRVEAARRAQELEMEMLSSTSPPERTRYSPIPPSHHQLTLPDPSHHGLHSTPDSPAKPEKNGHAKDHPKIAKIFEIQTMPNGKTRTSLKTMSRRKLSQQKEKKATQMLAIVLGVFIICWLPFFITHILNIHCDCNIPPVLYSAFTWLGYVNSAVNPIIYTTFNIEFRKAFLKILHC

Kd: 220 pM
Substance: iodospiperone [[^125I]-iodospiperone]
